This passage reports IC50 and ED50 results from patent publication US5436254A, “Carbostyril derivatives” (Otsuka Pharmaceutical Company, Ltd., priority 1989, dated 1995).

The target in the first assay is V1 receptor (Rattus norvegicus, UniProt P30560). The experiment in a line: biochemical.
Chain of V1 receptor (P30560 whole entry): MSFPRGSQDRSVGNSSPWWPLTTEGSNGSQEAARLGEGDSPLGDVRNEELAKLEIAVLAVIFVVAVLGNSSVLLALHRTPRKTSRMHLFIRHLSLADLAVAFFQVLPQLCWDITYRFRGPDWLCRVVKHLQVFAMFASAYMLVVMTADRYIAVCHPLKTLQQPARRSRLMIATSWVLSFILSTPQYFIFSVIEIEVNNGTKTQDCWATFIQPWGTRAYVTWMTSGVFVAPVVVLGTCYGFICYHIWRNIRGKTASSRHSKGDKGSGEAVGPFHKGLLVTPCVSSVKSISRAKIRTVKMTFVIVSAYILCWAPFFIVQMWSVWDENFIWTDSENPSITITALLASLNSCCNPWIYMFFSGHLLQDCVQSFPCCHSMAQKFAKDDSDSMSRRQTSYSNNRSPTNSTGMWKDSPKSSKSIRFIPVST
Settings: not given
Type of assay: binding.
As usually defined, the IC50 is the concentration at which inhibition is half-maximal. Low values mean higher potency, high ones lower potency. Regarding `COc1ccc(C(=O)N2CCC(N3C(=O)CCc4ccccc43)CC2)c(OC)c1` [Example 47, 1-[1-(2,4-Dimethoxybenzoyl)-4-piperidinyl]-3,4-dihydrocarbostyril], the IC50 is 100 nM.
The same measure, in the same setting: the figure for `CN(C)C(=O)C1CCN(C(=O)CCCCCOc2ccc(C(=O)N3CCC(N4C(=O)CCc5ccccc54)CC3)cc2)CC1` [Example 276, 1-{1-(4-[5-(4-Dimethylaminocarbonyl-1-piperidinylcarbonyl)pentyloxy]benzoyl)-4-piperidinyl}-3,4-dihydrocarbostyril] is 110 nM; for `Cn1ccnc1SCCCCCOc1ccc(C(=O)N2CCC(N3C(=O)CCc4ccccc43)CC2)cc1` [Example 278, 1-{1-(4-[5-(1-Methyl-2-imidazolylthio)pentyloxy]benzoyl)-4-piperidinyl}-3,4-dihydrocarbostyril] it is 110 nM.
On to `O=C(c1ccc(OCCCCCSc2ncccn2)cc1)N1CCC(N2C(=O)CCc3ccccc32)CC1` [Example 279, 1-{1-(4-[5-(2-Pyrimidylthio)pentyloxy]benzoyl)-4-piperidinyl}-3,4-dihydrocarbostyril], for which it took 180 nM to reach half-maximal inhibition (IC50).
Regarding `O=C(c1ccc(OCCCCC[S+]([O-])c2ncccn2)cc1)N1CCC(N2C(=O)CCc3ccccc32)CC1` (stereo not shown) [Example 280, 1-{1-(4-[5-(2-Pyrimidylsufinyl)pentyloxy]benzoyl)-4-piperidinyl}-3,4-dihydrocarbostyril], the half-inhibitory concentration (IC50) was 87 nM.
Same read-out and setting: the value for `O=C(c1ccc(OCCCCCS(=O)(=O)c2ncccn2)cc1)N1CCC(N2C(=O)CCc3ccccc32)CC1` [Example 281, 1-(1-(4-[5-(2-Pyrimidylsulfonyl)pentyloxy]benzoyl)-4-piperidinyl}-3,4-dihydrocarbostyril] was 54 nM; that for `Cn1ccnc1S(=O)(=O)CCCCCOc1ccc(C(=O)N2CCC(N3C(=O)CCc4ccccc43)CC2)cc1` [Example 282, 1-{1-(4-[5-(1-Methyl-2-imidazolylsulfonyl)pentyloxy)benzoyl)-4-piperidinyl}-3,4-dihydrocarbostyril] was 75 nM.
On the same count and under the same terms, the figure for `O=C(c1ccc(OCCCCCSc2ccncc2)cc1)N1CCC(N2C(=O)CCc3ccccc32)CC1` [Example 283, 1-{1-(4-[5-(4-Pyridylthio)pentyloxy]benzoyl)-4-piperidinyl}-3,4-dihydrocarbostyril] is 610 nM.
On the same count and under the same terms, the figure for `Nc1ccc(SCCCCCOc2ccc(C(=O)N3CCC(N4C(=O)CCc5ccccc54)CC3)cc2)cc1` [Example 284, 1-{1-(4-[5-(4-Aminophenylthio)pentyloxy]benzoyl)-4-piperidinyl}-3,4-dihydrocarbostyril] is 400 nM; for `O=C(c1ccc(OCCCCCS(=O)(=O)c2ccc([N+](=O)[O-])cc2)cc1)N1CCC(N2C(=O)CCc3ccccc32)CC1` [Example 285, 1-{1-(4-[5-(4-Nitrophenylsulfonyl)pentyloxy]benzoyl)-4-piperidinyl}-3,4-dihydrocarbostyril] it is 230 nM; for `Nc1ccc(S(=O)(=O)CCCCCOc2ccc(C(=O)N3CCC(N4C(=O)CCc5ccccc54)CC3)cc2)cc1` [Example 286, 1-{1-(4-[5-(4-Aminophenylsulfonyl)pentyloxy]benzoyl)-4-piperidinyl}-3,4-dihydrocarbostyril] it is 150 nM.
`O=C(c1ccc(OCCCCCS(=O)(=O)c2ccccn2)cc1)N1CCC(N2C(=O)CCc3ccccc32)CC1` [Example 287, 1-{1-(4-[5-(2-Pyridylsulfonyl)pentyloxy]benzoyl)-4-piperidinyl}-3,4-dihydrocarbostyril] displayed a concentration for half-maximal inhibition (IC50) of 100 nM.
`O=C(c1ccc(OCCCCCS(=O)(=O)c2cc[n+]([O-])cc2)cc1)N1CCC(N2C(=O)CCc3ccccc32)CC1` [Example 288, 1-{1-(4-[5-(Pyridine-N-oxide-4-ylsulfonyl)pentyloxy]benzoyl)-4-piperidinyl}-3,4-dihydrocarbostyril] displayed an IC50 of 48 nM.
The same measure, in the same setting: the value for `CC(=O)Nc1ccc(S(=O)(=O)CCCCCOc2ccc(C(=O)N3CCC(N4C(=O)CCc5ccccc54)CC3)cc2)cc1` [Example 289, 1-{1-(4-[5-(4-Acetylaminophenylsulfonyl)pentyloxy]benzoyl)-4-piperidinyl}-3,4-dihydrocarbostyril] was 100 nM; that for `O=C(c1ccc(OCCCCCN2CCCC2)cc1OCCCCCN1CCCC1)N1CCC(N2C(=O)CCc3ccccc32)CC1` [Example 291] was 98 nM; that for `CCN(CC)CCCCCOc1ccc(C(=O)N2CCC(N3C(=O)CCc4ccccc43)CC2)c(OCCCCCN(CC)CC)c1` [Example 292, 1-{1-[2,4-Di(5-diethylaminopentyloxy]benzoyl)-4-piperidinyl}-3,4-dihydrocarbostyril] was 77 nM.
Still for that read-out and setting: the figure for `COc1cc(OCCCCC(=O)N2CCSCC2)ccc1C(=O)N1CCC(N2C(=O)CCc3ccccc32)CC1` [Example 293, 1-{1-[2-Methoxy-4-(4-thiomorpholinocarbonylbutyloxy)benzoyl]-4-piperidinyl}-3,4-dihydrocarbostyril] is 220 nM; for `COc1cc(OCCCCC(N)=O)ccc1C(=O)N1CCC(N2C(=O)CCc3ccccc32)CC1` [Example 294, 1-{1-[2-Methoxy-4-(4-carbamoylbutoxy)benzoyl]-4-piperidinyl}-3,4-dihydrocarbostyril] it is 170 nM.
Same read-out and setting: the figure for `COc1cc(OCCCCC(=O)N2CC[S+]([O-])CC2)ccc1C(=O)N1CCC(N2C(=O)CCc3ccccc32)CC1` [Example 295, 1-{1-(2-Methoxy-4-[4-(4-oxothiomorpholino)carbonylbutyloxy)benzoyl]-4-piperidinyl}-3,4-dihydrocarbostyril] is 77 nM; for `COc1cc(OCCCCC(=O)N2CCS(=O)(=O)CC2)ccc1C(=O)N1CCC(N2C(=O)CCc3ccccc32)CC1` [Example 296, 1-{1-(2-Methoxy-4-[4-(4,4-dioxothiomorpholino)carbonylbutyloxy]benzoyl]-4-piperidinyl}-3,4-dihydrocarbostyril] it is 73 nM.
With `COc1cccc(CNCC(O)CCCCOc2ccc(C(=O)N3CCC(N4C(=O)CCc5ccccc54)CC3)cc2)c1` (stereo not shown) [Example 298, 1-{1-(4-[5-Hydroxy-6-(3-methoxybenzylamino)hexyloxy]benzoyl)-4-piperidinyl}-3,4-dihydrocarbostyril], it took 65 nM to reach half-maximal inhibition (IC50).
The same measure, in the same setting: the figure for `COc1ccc(CNCC(O)CCCCOc2ccc(C(=O)N3CCC(N4C(=O)CCc5ccccc54)CC3)cc2)cc1OC` (stereo not shown) [Example 299, 1-{1-(4-[5-Hydroxy-6-(3,4-dimethoxybenzylamino)hexyloxy]benzoyl)-4-piperidinyl}-3,4-dihydrocarbostyril.oxalate] is 65 nM; for `CN(CCc1ccccn1)CC(O)CCCCOc1ccc(C(=O)N2CCC(N3C(=O)CCc4ccccc43)CC2)cc1` (stereo not shown) [Example 300, 1-{1-(4-[5-Hydroxy-6-(N-methyl-N-(2-(2-pyridyl)ethyl)amino)hexyloxy]benzoyl]-4-piperidinyl}-3,4-dihydrocarbostyril] it is 34 nM.
The same measure, in the same setting: the figure for `CC[N+](C)(CC)CC(CCCCOc1ccc(C(=O)N2CCC(N3C(=O)CCc4ccccc43)CC2)cc1)OC` (stereo not shown) [Example 301, 1-{1-[4-(5-Methoxy-6-diethylmethylammoniumhexyloxy)benzoyl]-4-piperidinyl}-3,4-dihydrocarbostyril.iodine] is 47 nM; for `NC(=O)[C@@H]1CCCN1CC(O)CCCCOc1ccc(C(=O)N2CCC(N3C(=O)CCc4ccccc43)CC2)cc1` (stereo partly shown) [Example 302] it is 88 nM; for `O=C(c1ccc(OCCCCC(O)CN2CCCCC2)cc1)N1CCC(N2C(=O)CCc3ccccc32)CC1` (stereo not shown) [Example 303, 1-{1-[4-(5-Hydroxy-6-(1-piperidinyl)hexyloxy)benzoyl]-4-piperidinyl}-3,4-dihydrocarbostyril] it is 38 nM.
Still for that read-out and setting: the value for `O=C(c1ccc(OCCCCC(O)CN2CCC(Cc3ccccc3)CC2)cc1)N1CCC(N2C(=O)CCc3ccccc32)CC1` (stereo not shown) [Example 304, 1-{1-(4-[5-Hydroxy-6-(4-benzyl-1-piperidinyl)hexyloxy]benzoyl]-piperidinyl}-3,4-dihydrocarbostyril] was 37 nM; that for `CCN(CC)CC(CCCCOc1ccc(C(=O)N2CCC(N3C(=O)CCc4ccccc43)CC2)cc1)OC(C)=O` (stereo not shown) [Example 305, 1-{1-[4-(5-Acetoxy-6-diethylaminohexyloxy)benzoyl]-4-piperidinyl)-3,4-dihydrocarbostyril] was 65 nM.
Consider `CCOc1ccc(C(=O)N2CCC(N3C(=O)CCc4c(F)cccc43)CC2)c(OC)c1` [Example 306, 5-Fluoro-1-[1-(2-methoxy-4-ethoxybenzoyl)-4-piperidinyl}-3,4-dihydrocarbostyril], for which the IC50 turned out to be 84 nM.
On to `CCN(CC)CCCCCCOc1ccc(C(=O)N2CCC(N3C(=O)CCc4c(C)cccc43)CC2)cc1` [Example 307, 5-Methyl-1-{1-[4-(6-diethylaminohexyloxy)benzoyl]-4-piperidinyl}-3,4-dihydrocarbostyril], for which the IC50 turned out to be 23 nM.
The same measure, in the same setting: the figure for `CCOc1ccc(C(=O)N2CCC(N3C(=O)CCc4c(O)cccc43)CC2)c(OC)c1` [Example 308, 5-Hydroxy-1-[1-(2-methoxy-4-ethoxybenzoyl)-4-piperidinyl}-3,4-dihydrocarbostyril] is 95 nM; for `CCOc1ccc(C(=O)N2CCC(N3C(=O)CCc4c(OC(C)=O)cccc43)CC2)c(OC)c1` [Example 309, 5-Acetoxy-1-[1-(2-Methoxy-4-ethoxybenzoyl)-4-piperidinyl]-3,4-dihydrocarbostyril] it is 73 nM; for `CS(=O)(=O)NCC(=O)NCCCCCOc1ccc(C(=O)N2CCC(N3C(=O)CCc4ccccc43)CC2)cc1` [Example 310, 1-{1-(4-[5-(2-Methanesulfonylaminoacetylamino)pentyloxy]benzoyl)-4-piperidinyl]-3,4-dihydrocarbostyril] it is 160 nM.

For another assay, the system named is increase of diastolic pressure caused by Arg-vasopressin. Put plainly: Anti-vasopressor activity in vivo (pith rat, increase of diastolic pressure by Arg-vasopressin). Details: species or system male SD rat. Particulars: iv, read-out: ED50 (dose required to reduce the increase of diastolic pressure caused by Arg-vasopressin to 50 % of its control value).
In general, ED50 refers to the midpoint of the dose-response relation. As for `COc1ccc(C(=O)N2CCC(N3C(=O)CCc4ccccc43)CC2)c(OC)c1` [Example 47, 1-[1-(2,4-Dimethoxybenzoyl)-4-piperidinyl]-3,4-dihydrocarbostyril], the ED50 came to 0.4 mg/kg.
